ChEMBL document CHEMBL1158289, “Bioactive amides from Glycosmis species” (J Nat Prod, 1996)
Values after ≈ are worked out from the molar mass of the structure shown.

Assays:
Spodoptera littoralis [1] = experiment: Contact toxicity in Spodoptera littoralis neonatal larvae assessed as mortality after 48 hrs; type: organism-based; conditions: in vivo
Spodoptera littoralis [2] = experiment: Toxicity in Spodoptera littoralis neonatal larvae assessed as growth inhibition after 5 days; type: organism-based
Spodoptera littoralis [3] = experiment: Toxicity in Spodoptera littoralis neonatal larvae assessed as survival rate after 5 days; type: organism-based; conditions: in vivo, 120 h
Cladosporium herbarum = experiment: Antifungal activity against Cladosporium herbarum assessed as inhibition of spore germination after 36 hrs by germtube inhibition test; type: functional; conditions: read-out: ED50 (the source's name)

| SMILES | LC50 (Spodoptera littoralis [1]) [umol/dm'2] | EC50 (Spodoptera littoralis [2]) [µmol/g] | LC50 (Spodoptera littoralis [3]) [µmol/g] | EC50 (Cladosporium herbarum) [µg/mL] |
| --- | --- | --- | --- | --- |
| CSC(=O)N(C)C(=O)Cc1ccccc1 [RITIGALIN] | 0.05 | 0.43 | 1.34 | 156 (≈ 699 µM) |
| CS/C=C/C(=O)N(C)/C=C/c1ccccc1 [METHYLILLUKUMBIN A] | > 6.5 | 0.94 | > 5 | 5.5 (≈ 23.6 µM) |
| CS/C=C/C(=O)N(C)CCc1ccccc1 | 0.03 | 0.47 | 4.24 | 17.6 (≈ 74.8 µM) |
| CSC(=O)N(C)CCc1ccccc1 [NIRANIN] | 0.03 | 0.25 | 0.81 | 28 (≈ 134 µM) |
| CSC(=O)N(C)/C=C\c1ccccc1 [DEHYDRONIRANIN B] | 0.02 | 0.37 | 0.96 | 8.4 (≈ 40.5 µM) |
| CNC(=O)/C=C/SC [PENANGIN] | 2.84 | 0.84 | > 10 | > 200 |
| CSC(=O)N(C)/C=C/c1ccccc1 [DEHYDRONIRANIN A] | 0.18 | 0.41 | 1.64 | 100 (≈ 482 µM) |
